Source: paper PMC12164026, “Plant-derived nodule-specific cysteine-rich peptides as potent antifungal agents against Cryptococcus neoformans: mechanisms of action, chimeric peptide enhancement, and immunomodulatory effects” (Current Research in Microbial Sciences, 2025)
≈ marks a conversion by molar mass, not a printed value. Read-outs that look alike come from different tables or passages of the source. Peptide text beside a SMILES is read from it.

Assays:
[1] = test system: Cryptococcus neoformans IFM 5844; assay: Minimal fungicidal concentration (MFC) determination, spotting on YPD; format: cell-based; details: cultures from MIC assays diluted and spotted onto solid YPD, 30 °C, 48 h
Method: Minimal fungicidal concentration (MFC) determination. To assess fungicidal activity, both control and peptide-treated cultures from the MIC assays were diluted 10-fold and 100-fold in sterile distilled water. Five µL from each dilution was then spotted onto solid YPD medium (1 % pepton, 1 % dextrose, 0.5 % yeast extract, 2 % agar). The plates were incubated at 30 °C for 48 h and fungal growth was evaluated. MFC was defined as the lowest peptide concentration at which no visible fungal growth was detected, indicating complete fungicidal activity.

[2] = test system: C. neoformans IFM 5844 cells; assay: Short-term sub-MIC killing, CFU counts; format: cell-based, Cryptococcus neoformans; details: for proportion of viable cells (CFU relative to control): 0.19 µM (half-MIC), YNB, 2 × 10^6 cells/mL; for reduction in colony-forming units: 30 min
Method: To assess the time-dependent fungicidal activity of X1-NCR247C, C. neoformans cells cultivated for 16 h at 30 °C were collected by centrifugation and washed twice with sterile distilled water. […] Following treatment, cells were pelleted by centrifugation washed with distilled water and serially diluted 10-fold and 100-fold. Fifty microliters of each dilution were plated onto solid YPD medium in triplicate.
After treatment, the cells were pelleted by centrifugation, washed with distilled water and serially diluted 10-fold and 100-fold. Fifty microliters of each dilution were spread onto solid YPD medium in triplicate. For both experimental setups colony forming unit (CFU) counts were determined after 48-hours incubation at 30 °C. The CFU values of peptide-treated samples were compared to untreated control samples, providing insights into the extent of fungal viability reduction. Three independent biological replicates were performed.

[3] = test system: C. neoformans IFM 5844 intact cells; assay: Susceptibility of intact cells to peptide, CFU counts; format: cell-based, Cryptococcus neoformans; details: 30 min, YNB + 0.8 M sorbitol
Method: (§1) The C. neoformans IFM 5844 strain was grown in YPD nutrient solution at 30 °C for 12 h by vigorous shaking until the exponential phase was reached (about 5 × 10^7 cells/mL).
To assess peptide susceptibility, 2 × 10^6 protoplasts and the same number of intact cells were treated separately with X1-NCR247C peptide at 0.78 or 0.39 µM in YNB supplemented with 0.8 M sorbitol for 30 min at 30 °C. […] Fifty microliters from each dilution were mixed into 2 mL of top-agar (0.8 M sorbitol with 1 % agar) and spread onto the surface of YPD solid medium supplemented with 0.8 M sorbitol. Plates were incubated for 3 days at 30 °C, after which colony forming units were counted to determine the survival rate of peptide-treated cells and protoplasts.

[4] = test system: Cryptococcus neoformans IFM 5844; format: cell-based; details: IFM 5844, 48 h
Method: (§2) The susceptibility of Cryptococcus neoformans IFM 5844 to 20 peptides (Supplementary Table 1) was tested in a widely used synthetic medium to cultivate yeasts (YNB) and in a serum-free medium what is able to support the proliferation of macrophage cells (X-VIVO).
X-VIVO medium: half-diluted X-VIVO™ 15 cell culture medium (Lonza, Verviers, Belgium).
(§3) The minimal inhibitory concentration (MIC) of each peptide was determined by using micro-dilution assay. The C. neoformans suspensions were adjusted to 5 × 10^4 cells/mL concentration in either YNB or X-VIVO medium. A 96-well microtiter plate was prepared by adding 95 µL suspension per well followed by 5 µL of serially two-fold diluted peptide solutions achieving a final volume of 100 µl. The concentration of the peptides ranged from 25 to 0.39 µM. For control samples, 5 µL pure medium was added to the yeast cell suspension instead of peptides. Plates were incubated at 37 °C for 48 h in X-VIVO medium and 30 °C for 72 h in YNB medium. After incubation, optical density was measured at 620 nm using a SPECTROstar Nano plate reader (BMG LabTech, Offenburg, Germany). […] The experiments were carried out in three independent biological replicates.

[5] = test system: Cryptococcus neoformans IFM 5844; assay: microbe, parasite or virus in culture; format: cell-based; details: IFM 5844, 48 h; read-out: MIC
Method: as §2
YNB medium: five-fold diluted Difco Yeast Nitrogen Base w/o Amino Acids medium (Becton, Dickinson and Company, Sparks, MD, USA) supplemented with 1 % dextrose
as §3

[6] = test system: C. neoformans IFM 5844 protoplasts; assay: Susceptibility of protoplasts to peptide, CFU counts; format: cell-based, Cryptococcus neoformans; details: 30 min, YNB + 0.8 M sorbitol
Method: as §1
For protoplast preparation cells were harvested by centrifugation and re-suspended in 20 mL of pre-treatment buffer (10 mM Tris–HCl, pH 9; 5 mM EDTA-Na2) supplemented with 0.1 % 2-mercaptoethanol. After incubation at room temperature for 20 min, the samples were centrifuged and the cell pellet was washed with 0.8 M sorbitol solution. The pellet was then re-suspended in 20 mL of protoplasting solution (prepared by dissolving 1 g lyophilised Helix pomatia digestive enzyme in 100 mL sorbitol) and the suspension was incubated for 60 min at room temperature. Protoplast formation was monitored every 30 min under bright field microscope. Once formed, protoplasts were collected by centrifugation, washed twice with 0.8 M sorbitol, and their concentration was determined in a Bürker chamber.
To assess peptide susceptibility, 2 × 10^6 protoplasts and the same number of intact cells were treated separately with X1-NCR247C peptide at 0.78 or 0.39 µM in YNB supplemented with 0.8 M sorbitol for 30 min at 30 °C. […] Plates were incubated for 3 days at 30 °C, after which colony forming units were counted to determine the survival rate of peptide-treated cells and protoplasts.

[7] = test system: J774.2 mouse macrophages; assay: Phagocytosis of peptide-treated C. neoformans cells by macrophages, imaging flow cytometry; format: cell-based; details: yeast cells pre-treated with 3.12 µM peptide for 15 min, 5:1 yeast-to-macrophage ratio
Method: C. neoformans was cultivated for 16 h at 30 °C, collected by centrifugation (5000 g, 5 min), and washed twice with sterile distilled water and once with PBS. […] After 15 min of incubation at 30 °C, the peptide-containing solution was removed by centrifugation, and the C. neoformans cells were washed with PBS and re-suspended in 100 µL PBS. Untreated C. neoformans cells served as controls.
To label C. neoformans cells, the suspension was supplemented with 11 µL of 1 M Na₂CO₃ (pH 10) and 2 µL of Alexa Fluor 488-labelled-concanavalin (Invitrogen, Waltham, MA, US), followed by incubation at room temperature for 30 min, protected from light. After PBS washing, the cell density was determined using a Bürker chamber and adjusted to the required concentration. […]
Following incubation, cells from each technical replicate were collected by centrifugation (200 g, 10 min), washed once with PBS, and re-suspended in 100 µL PBS buffer for detection. A random selection of 1000 macrophages was evaluated in each experimental sample, and the proportion of macrophages harboring fluorescently labelled C. neoformans cells was quantified utilizing imaging flow cytometry (FlowSight®, Amnis-EMD Millipore) equipped with a 488-nm excitation laser, with data analysis conducted through the IDEAS software platform.

**Q.** CSCC[C@H](NC(=O)[C@H](CCCCN)NC(=O)[C@H](Cc1ccccc1)NC(=O)[C@H](CC(N)=O)NC(=O)[C@H](CC(C)C)NC(=O)[C@@H]1CCCN1C(=O)[C@@H](N)CCCNC(=N)N)C(=O)N[C@@H](CC(C)C)C(=O)N[C@@H](CCCNC(=N)N)C(=O)N[C@@H](Cc1ccccc1)C(=O)N[C@@H](Cc1c[nH]c2ccccc12)C(=O)NCC(=O)N[C@@H](CCC(N)=O)C(=O)N[C@@H](CCC(N)=O)C(=O)N[C@@H](CCC(N)=O)C(=O)N[C@@H](CS)C(=O)N[C@@H](CCCNC(=N)N)C(=O)N[C@@H](CCCNC(=N)N)C(=O)N1CCC[C@H]1C(=O)N[C@@H](CC(C)C)C(=O)N[C@@H](Cc1ccc(O)cc1)C(=O)N[C@@H](CS)C(=O)N[C@@H](CCCNC(=N)N)C(=O)N[C@@H](CCCNC(=N)N)C(=O)N[C@@H](CCCNC(=N)N)C(N)=O [X1-NCR247C] (H-RPLNFKMLRFWGQQQCRRPLYCRRR-NH2; N-terminus assumed) was tested. Which “fungistatic or fungicide mode of action” value [1] did it give?
**A.** fungicidal effect

**Q.** What about the “proportion of viable cells (CFU relative to control)” value ([2]; 5 min) of the same molecule?
**A.** 25%

**Q.** What about the “proportion of viable cells (CFU relative to control)” value ([2]; 60 min) of the same molecule?
**A.** 5%

**Q.** And the “reduction in colony-forming units” value ([2]; half-MIC (0.19 µM), p ≤ 0.001)?
**A.** highly significant decrease

**Q.** And the “reduction in colony-forming units” value ([2]; quarter-MIC, p ≤ 0.05)?
**A.** notable reduction

**Q.** And the “CFU count reduction relative to untreated control” value ([3]; 0.39 µM)?
**A.** 97%

**Q.** What about the “CFU count reduction relative to untreated control” value ([3]; 0.78 µM) of the same molecule?
**A.** 99%

**Q.** What about the MIC [4] of the same molecule?
**A.** 3.12 µM (≈ 10.3 µg/mL)

**Q.** And the MIC [5]?
**A.** 1.56 µM (≈ 5.16 µg/mL)

**Q.** And the “CFU count reduction relative to untreated control” value ([6]; 0.39 µM)?
**A.** 43%

**Q.** And the “CFU count reduction relative to untreated control” value ([6]; 0.78 µM)?
**A.** 83%

**Q.** And the “percentage of phagocytic macrophages” value ([7]; 30 min post-infection, untreated control 5.12 %)?
**A.** 7.95%

**Q.** And the “percentage of phagocytic macrophages” value ([7]; 60 min post-infection, untreated control 6.95 %)?
**A.** 33.95%
